Key:
Assay in all cases: relative viability (nuclei count vs DMSO), 5 days (fraction); higher = more cells survive
[1] = compound: CCOc1cc2ncc(C#N)c(Nc3ccc(OCc4ccccn4)c(Cl)c3)c2cc1NC(=O)/C=C/CN(C)C [Neratinib] + CC(=O)Nc1cccc(-n2c(=O)n(C3CC3)c(=O)c3c(Nc4ccc(I)cc4F)n(C)c(=O)c(C)c32)c1 [Trametinib] (partner 0.02 µM)
Outline: (§1)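 Values are medians from duplicate plates. Each reflects relative viability, defined as the nuclei count of treated wells over that of vehicle wells. Lung cancer cell lines in 1536-well plates were pin-tool dosed one day after seeding with one drug alone or with a fixed anchor-drug dose plus five library-drug doses (not always all listed) in √10 steps, then fixed, stained and imaged at 4× after 5 days.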

[2] = compound: CCOc1cc2ncc(C#N)c(Nc3ccc(OCc4ccccn4)c(Cl)c3)c2cc1NC(=O)/C=C/CN(C)C [Neratinib] + CC(C)C[C@H](NC(=O)[C@H](Cc1ccccc1)NC(=O)c1cnccn1)B(O)O [Bortezomib] (partner 0.002 µM)
Outline: as §1

[3] = compound: CCOc1cc2ncc(C#N)c(Nc3ccc(OCc4ccccn4)c(Cl)c3)c2cc1NC(=O)/C=C/CN(C)C [Neratinib] + CS(=O)(=O)N1CCN(Cc2cc3nc(-c4cccc5[nH]ncc45)nc(N4CCOCC4)c3s2)CC1 [Pictilisib] (partner 1 µM)
Outline: as §1

[4] = compound: CCOc1cc2ncc(C#N)c(Nc3ccc(OCc4ccccn4)c(Cl)c3)c2cc1NC(=O)/C=C/CN(C)C [Neratinib] + O=C(c1cc(Cc2n[nH]c(=O)c3ccccc23)ccc1F)N1CCN(C(=O)C2CC2)CC1 [Olaparib] (partner 8 µM)
Outline: as §1

Cell Line HCC-78 has a relative viability ([1]; first compound 0.01 µM) of 0.901, a relative viability ([1]; first compound 0.03162 µM) of 0.668 and a relative viability ([1]; first compound 0.1 µM) of 0.678. The relative viability ([1]; first compound 0.3162 µM) was 0.731, the relative viability ([1]; first compound 1 µM) was 0.296 and the relative viability ([2]; first compound 0.01 µM) was 0.478. It also gave a relative viability ([2]; first compound 0.03162 µM) of 0.446, a relative viability ([2]; first compound 0.1 µM) of 0.432 and a relative viability ([2]; first compound 0.3162 µM) of 0.43. For the same cell line, the relative viability ([2]; first compound 1 µM) was 0.301, the relative viability ([3]; first compound 0.01 µM) was 0.184 and the relative viability ([3]; first compound 0.03162 µM) was 0.233. It also gave a relative viability ([3]; first compound 0.1 µM) of 0.215, a relative viability ([3]; first compound 0.3162 µM) of 0.215 and a relative viability ([3]; first compound 1 µM) of 0.182. For the same cell line, the relative viability ([4]; first compound 0.01 µM) was 0.996, the relative viability ([4]; first compound 0.03162 µM) was 0.87 and the relative viability ([4]; first compound 0.1 µM) was 0.817. The relative viability ([4]; first compound 0.3162 µM) was 0.798 and the relative viability ([4]; first compound 1 µM) was 0.396.

In the case of HCC-366, the relative viability ([1]; first compound 0.01 µM) is reported as 0.428, the relative viability ([1]; first compound 0.03162 µM) is reported as 0.396 and the relative viability ([1]; first compound 0.1 µM) is reported as 0.342. For the same cell line, the relative viability ([1]; first compound 0.3162 µM) was 0.322, the relative viability ([1]; first compound 1 µM) was 0.205 and the relative viability ([2]; first compound 0.01 µM) was 1.16. For the same cell line, the relative viability ([2]; first compound 0.03162 µM) was 1.13, the relative viability ([2]; first compound 0.3162 µM) was 1.01 and the relative viability ([2]; first compound 1 µM) was 1.07. The relative viability ([3]; first compound 0.01 µM) was 0.174, the relative viability ([3]; first compound 0.03162 µM) was 0.149 and the relative viability ([3]; first compound 0.1 µM) was 0.101. For the same cell line, the relative viability ([3]; first compound 0.3162 µM) was 0.137, the relative viability ([3]; first compound 1 µM) was 0.112 and the relative viability ([4]; first compound 0.01 µM) was 0.36. The relative viability ([4]; first compound 0.03162 µM) was 0.324, the relative viability ([4]; first compound 0.1 µM) was 0.267 and the relative viability ([4]; first compound 0.3162 µM) was 0.347. For the same cell line, the relative viability ([4]; first compound 1 µM) was 0.404.

HCC-827 showed a relative viability ([1]; first compound 0.01 µM) of 0.426, a relative viability ([1]; first compound 0.03162 µM) of 0.545 and a relative viability ([1]; first compound 0.1 µM) of 0.561. For the same cell line, the relative viability ([1]; first compound 0.3162 µM) was 0.226, the relative viability ([1]; first compound 1 µM) was 0.153 and the relative viability ([2]; first compound 0.01 µM) was 1.05. It also gave a relative viability ([2]; first compound 0.03162 µM) of 1.07, a relative viability ([2]; first compound 0.1 µM) of 0.876 and a relative viability ([2]; first compound 0.3162 µM) of 1.13. For the same cell line, the relative viability ([2]; first compound 1 µM) was 0.376, the relative viability ([3]; first compound 0.01 µM) was 0.872 and the relative viability ([3]; first compound 0.03162 µM) was 0.88. For the same cell line, the relative viability ([3]; first compound 0.1 µM) was 0.73, the relative viability ([3]; first compound 0.3162 µM) was 0.623 and the relative viability ([3]; first compound 1 µM) was 0.219. For the same cell line, the relative viability ([4]; first compound 0.01 µM) was 0.624, the relative viability ([4]; first compound 0.03162 µM) was 0.763 and the relative viability ([4]; first compound 0.1 µM) was 0.665. For the same cell line, the relative viability ([4]; first compound 0.3162 µM) was 0.272 and the relative viability ([4]; first compound 1 µM) was 0.107.

HOP-62 showed a relative viability ([1]; first compound 0.01 µM) of 0.408, a relative viability ([1]; first compound 0.03162 µM) of 0.4 and a relative viability ([1]; first compound 0.1 µM) of 0.337. The relative viability ([1]; first compound 1 µM) was 0.405, the relative viability ([2]; first compound 0.01 µM) was 0.872 and the relative viability ([2]; first compound 0.03162 µM) was 0.855. For the same cell line, the relative viability ([2]; first compound 0.1 µM) was 0.624, the relative viability ([2]; first compound 0.3162 µM) was 0.541 and the relative viability ([2]; first compound 1 µM) was 1. For the same cell line, the relative viability ([3]; first compound 0.01 µM) was 0.677, the relative viability ([3]; first compound 0.03162 µM) was 0.826 and the relative viability ([3]; first compound 0.1 µM) was 0.691. For the same cell line, the relative viability ([3]; first compound 0.3162 µM) was 0.669, the relative viability ([3]; first compound 1 µM) was 0.52 and the relative viability ([4]; first compound 0.01 µM) was 0.416. The relative viability ([4]; first compound 0.03162 µM) was 0.459, the relative viability ([4]; first compound 0.1 µM) was 0.367 and the relative viability ([4]; first compound 0.3162 µM) was 0.412. The relative viability ([4]; first compound 1 µM) was 0.344.

Work on IA-LM yielded a relative viability ([2]; first compound 0.01 µM) of 0.952, a relative viability ([2]; first compound 0.03162 µM) of 0.908 and a relative viability ([2]; first compound 0.1 µM) of 0.787. The relative viability ([2]; first compound 0.3162 µM) was 0.891, the relative viability ([2]; first compound 1 µM) was 0.507 and the relative viability ([3]; first compound 0.01 µM) was 0.33. For the same cell line, the relative viability ([3]; first compound 0.03162 µM) was 0.318, the relative viability ([3]; first compound 0.1 µM) was 0.193 and the relative viability ([3]; first compound 0.3162 µM) was 0.197. For the same cell line, the relative viability ([3]; first compound 1 µM) was 0.126, the relative viability ([4]; first compound 0.01 µM) was 0.985 and the relative viability ([4]; first compound 0.03162 µM) was 0.82. It also gave a relative viability ([4]; first compound 0.1 µM) of 0.715, a relative viability ([4]; first compound 0.3162 µM) of 0.838 and a relative viability ([4]; first compound 1 µM) of 0.517.

Work on LC-2-ad yielded a relative viability ([1]; first compound 0.01 µM) of 0.98, a relative viability ([1]; first compound 0.03162 µM) of 0.933 and a relative viability ([1]; first compound 0.1 µM) of 0.805. For the same cell line, the relative viability ([1]; first compound 0.3162 µM) was 0.845, the relative viability ([1]; first compound 1 µM) was 0.85 and the relative viability ([2]; first compound 0.01 µM) was 1. It also gave a relative viability ([2]; first compound 0.03162 µM) of 1.07, a relative viability ([2]; first compound 0.1 µM) of 0.866 and a relative viability ([2]; first compound 0.3162 µM) of 1. It also gave a relative viability ([2]; first compound 1 µM) of 0.963, a relative viability ([3]; first compound 0.01 µM) of 0.525 and a relative viability ([3]; first compound 0.03162 µM) of 0.485. It also gave a relative viability ([3]; first compound 0.1 µM) of 0.0712, a relative viability ([3]; first compound 0.3162 µM) of 0.249 and a relative viability ([3]; first compound 1 µM) of 0.162. It also gave a relative viability ([4]; first compound 0.01 µM) of 0.777, a relative viability ([4]; first compound 0.1 µM) of 0.651 and a relative viability ([4]; first compound 0.3162 µM) of 0.756. The relative viability ([4]; first compound 1 µM) was 0.785.

With LCLC-97TM1 the relative viability ([1]; first compound 0.01 µM) was 0.187, the relative viability ([1]; first compound 0.03162 µM) was 0.193 and the relative viability ([1]; first compound 0.1 µM) was 0.192. It also gave a relative viability ([1]; first compound 1 µM) of 0.112, a relative viability ([2]; first compound 0.01 µM) of 0.786 and a relative viability ([2]; first compound 0.03162 µM) of 0.347. For the same cell line, the relative viability ([2]; first compound 0.1 µM) was 0.739, the relative viability ([2]; first compound 0.3162 µM) was 0.41 and the relative viability ([2]; first compound 1 µM) was 0.298. For the same cell line, the relative viability ([3]; first compound 0.01 µM) was 0.212, the relative viability ([3]; first compound 0.03162 µM) was 0.164 and the relative viability ([3]; first compound 0.1 µM) was 0.199. It also gave a relative viability ([3]; first compound 0.3162 µM) of 0.143, a relative viability ([3]; first compound 1 µM) of 0.138 and a relative viability ([4]; first compound 0.01 µM) of 0.31. The relative viability ([4]; first compound 0.03162 µM) was 0.437, the relative viability ([4]; first compound 0.1 µM) was 0.329 and the relative viability ([4]; first compound 1 µM) was 0.234.

In the case of LK-2, the relative viability ([1]; first compound 0.01 µM) is reported as 0.948, the relative viability ([1]; first compound 0.03162 µM) is reported as 0.714 and the relative viability ([1]; first compound 0.1 µM) is reported as 0.851. It also gave a relative viability ([1]; first compound 0.3162 µM) of 0.501, a relative viability ([1]; first compound 1 µM) of 0.34 and a relative viability ([3]; first compound 0.01 µM) of 0.653. It also gave a relative viability ([3]; first compound 0.03162 µM) of 0.566, a relative viability ([3]; first compound 0.1 µM) of 0.594 and a relative viability ([3]; first compound 0.3162 µM) of 0.446. The relative viability ([3]; first compound 1 µM) was 0.266, the relative viability ([4]; first compound 0.01 µM) was 0.941 and the relative viability ([4]; first compound 0.03162 µM) was 0.949. The relative viability ([4]; first compound 0.1 µM) was 0.747, the relative viability ([4]; first compound 0.3162 µM) was 0.553 and the relative viability ([4]; first compound 1 µM) was 0.433.

In the case of NCI-H358, the relative viability ([1]; first compound 0.01 µM) is reported as 0.119, the relative viability ([1]; first compound 0.03162 µM) is reported as 0.118 and the relative viability ([1]; first compound 0.1 µM) is reported as 0.0959. For the same cell line, the relative viability ([1]; first compound 0.3162 µM) was 0.121, the relative viability ([1]; first compound 1 µM) was 0.125 and the relative viability ([3]; first compound 0.01 µM) was 0.302. For the same cell line, the relative viability ([3]; first compound 0.03162 µM) was 0.336, the relative viability ([3]; first compound 0.1 µM) was 0.231 and the relative viability ([3]; first compound 0.3162 µM) was 0.295. The relative viability ([3]; first compound 1 µM) was 0.228, the relative viability ([4]; first compound 0.01 µM) was 0.552 and the relative viability ([4]; first compound 0.03162 µM) was 0.569. The relative viability ([4]; first compound 0.1 µM) was 0.409, the relative viability ([4]; first compound 0.3162 µM) was 0.238 and the relative viability ([4]; first compound 1 µM) was 0.162.

Source: the supplement of paper PMC10307832
